Data on five compounds can be found in ChEMBL document CHEMBL3714740, “alpha-amino acid derivatives and medicaments containing the same as an active ingredient” (2011).

Calls of active or inactive are those of the source. The calls are words filed in the database; no cut-off is given here.

The subject of one test is DU-145. Put plainly: Antitumor activity against human DU145 cells xenografted in nude Balb/c mouse assessed as inhibition of tumor volume at 100 mg/kg administered orally using gastric tube once daily for 14 days starting at mean tumor volume of 200 to 250 mm3. The following applies: Prostate. It counts as functional, organism-based. (In xenograft studies the graft and the host belong to different species.)

Test [1] is described as follows: Antiproliferative activity against human SW620 cells assessed as inhibition of cell proliferation incubated for 4 days by CCK8 assay. It counts as functional, cell-based. The following applies: SW-620, 96 h.
The next test relates to SW-620. Nature of the test: Antitumor activity against human SW620 cells xenografted in nude Balb/c mouse assessed as inhibition of tumor volume at 100 mg/kg administered orally using gastric tube once daily for 17 days starting at mean tumor volume of 200 to 250 mm3. It counts as functional, organism-based.

The IC50 is the concentration at which inhibition is half-maximal.

In the case of `CCNC(=O)c1cc(NC(C)(C)C(=O)Nc2nc3c(C(F)(F)F)cc4[nH]ncc4c3s2)ccc1Cl`, the inhibition entry in the test on DU-145 is “Active”.

Regarding `CC(C)(C)C(=O)Nc1cc(NC(C)(C)C(=O)Nc2nc3ccc4[nH]ncc4c3s2)ccc1Cl`, in test [1], the IC50 amounted to 2700 nM.

For `CNC(=O)c1cc(NC2(C(=O)Nc3nc4ccc5[nH]ncc5c4s3)CC2)ccc1Cl`, the inhibition entry in the test on SW-620 and with DU-145 was “Active” in each case.

Turning to `CC(C)(Nc1ccc(Cl)cc1)C(=O)Nc1nc2ccc3[nH]ncc3c2s1`, the inhibition result with SW-620 and in the test with DU-145 was “Active” in each case.

As for `CC(C)(Nc1ccc(Cl)c(OCC(O)CO)c1)C(=O)Nc1nc2c(C(F)(F)F)cc3[nH]ncc3c2s1` (configuration not stated), in the test on DU-145, the inhibition entry is “Active”.
